Reference: patent US20230002449A1, “DERIVED PEPTIDE OF LACTOFERRIN AND METHOD THEREOF FOR PROMOTING AND/OR INCREASING LIPID SYNTHESIS” (RENORIGIN INNOVATION INSTITUTE CO., LTD., priority 2021, published 2023)

Tested on: Human sebocytes
Experiment: Neutral fat detection (Nile red staining, fluorescence intensity) in human sebocytes
Format: cell-based
Method: Human sebocytes (Cat. No. 36079-01, Celprogen, Torrance, Calif., USA) were cultured in Dulbecco's Modified Eagle Medium (DMEM): Nutrient Mixture F-12 (DMEM/F12) purchased from Thermo Fisher Scientific Limited (Barrington, Ill., USA), 10% fetal bovine serum (FBS) purchased from Gibco, Grand Island, N.Y., USA and penicillin/streptomycin (100 IU/50 […]), incubated at 37° C. in the 5% CO2 atmosphere.
Human sebocytes were implanted in 24- or 96-well plates. After 24 hours of culture, the cells were divided into a negative control group, a positive control group and an experimental group. […] The treated human sebocytes were cultured for two days. Human sebocytes were fixed with 4% formaldehyde at room temperature. After 60 minutes of fixation, the cells were washed with PBS and stain with Nile Red solution (1 μg/ml in PBS) at 37° C. for 15 minutes. Next, the cells were washed and observed under a fluorescent microscope. Fluorescence intensity was measured with fluorometer Spectra Max i3.

[1] = 0.1 mM LA + 50 μg/mL peptide vs LA alone, FIG. 1E

Row | Molecule | lipid content compared with the negative control group (0.1 mM LA alone vs negative control, FIG. 1E) | fluorescence intensity (lipid content of sebocytes, Nile red) (0.1 mM linoleic acid (LA) alone, positive control group, negative control about 1, FIG. 1E, cultured two days) | fluorescence intensity (lipid content of sebocytes, Nile red) (50 μg/mL peptide, negative control about 1.0, FIG. 2E) | fluorescence intensity (lipid content of sebocytes, Nile red) (100 μg/mL peptide, negative control about 1.0, FIG. 2E) | fluorescence intensity (lipid content of sebocytes, Nile red) (0.1 mM LA + 50 μg/mL lactoferrin peptide, negative control about 1, positive control (LA) about 3.44, FIG. 1E) | lipid content increase compared with the positive control group (LA) [1] [%] | promoting and/or increasing the content of lipid synthesized by the induction of LA (significance vs positive control) [1] | fluorescence intensity (lipid content of sebocytes, Nile red) (400 μg/mL peptide (so in the source), negative control about 1.0, FIG. 2E) | concentration dependence of the lipid content increase (50, 100, 200 μg/mL peptide, FIG. 2)
1 | CCCCC/C=C\C/C=C\CCCCCCCC(=O)O [LA, linoleic acid, reference compound] | more than 3 times | about 3.44 | – | – | – | – | – | – | –
2 | Lf13: Lactoferrin-derived peptide purchased from DgPeptides; presumably the derived peptide comprising the amino acid sequence of SEQ ID NO: 01 (APRKNVRWCTISQ; Lactoferrin derived peptide) | – | – | about 1.29 | about 1.44 | about 4.67 | 40 | significant difference | about 1.54 | dose-dependent manner
